Reference: US7138108B2, “Photoprotective UV-screening compositions comprising (phenylsulfonyl) acrylonitrile-substituted silanes/siloxanes” (L'Oreal, priority 2002, dated 2006)

Assay: UV absorption spectrum in ethanol (UV-A screening power)
Assay type: physicochemical
Conditions: UV (EtOH); for E1% / εmax: at λmax

| SMILES | λmax | E1% | εmax |
| --- | --- | --- | --- |
| C=C(C)COc1ccc(C=C(C#N)S(=O)(=O)c2ccccc2)cc1 [2-benzenesulfonyl-3-[4-(2-methylallyloxy)phenyl]acrylonitrile] | 345 nm | 736 | – |
| C[Si](C)(C)CCCOc1ccc(/C=C(\C#N)S(=O)(=O)c2ccccc2)cc1 [Example 1, 2-benzenesulfonyl-3-[4-(3-trimethylsilanylpropoxy)phenyl]acrylonitrile] | 347 nm | 813 | 32 500 |
| CC(COc1ccc(/C=C(\C#N)S(=O)(=O)c2ccccc2)cc1)C[Si](C)(O[Si](C)(C)C)O[Si](C)(C)C (centres unmarked) [Example 2, [4-[2-methyl-3-[1,3,3,3-tetramethyl-1-[(trimethylsilyl)oxy]disiloxanyl]propyloxy]phenyl]-2-(benzenesulfonyl)acrylonitrile] | 348 nm | 632 | 35 500 |
